Measured values reported in patent US20220347175A1, “PYRIDAZINONE DERIVATIVE” (Sumitomo Dainippon Pharma Co., Ltd., priority 2018, published 2022).

Legend:
[1] = molecular target: T1, human Nav1.1 (Homo sapiens, UniProt P35498); test: Amplification of Nav1.1-derived voltage-dependent sodium current (Nav1.1 current), cell line stably expressing human Nav1.1, automated patch clamp; format: cell-based; conditions: 10 μmol/L compound, change of the area under the curve of Nav1.1 current (Test Result 1); for activation at 10 µM: read-out: Nav1.1 current amplification rate (%)
T1 construct: host or cells: HEK293
Summary of the method: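 Automated whole-cell voltage-clamp recordings used HEK293 cells stably expressing human Nav1.1, keeping only cells with >500 pA current, with currents evoked by ramp voltage. Compounds were applied in extracellular fluid with 1% DMSO, and amplification (%) was computed from peak current or AUC after versus before addition.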

[2] = molecular target: T2, human Nav1.5 (Homo sapiens, UniProt Q14524); test: Amplification of Nav1.5-derived voltage-dependent sodium current (Nav1.5 current), cell line stably expressing human Nav1.5, automated patch clamp; format: cell-based; conditions: 10 μmol/L compound, change of the area under the curve of Nav1.5 current (Test Result 1); for activation at 10 µM: read-out: Nav1.5 current amplification rate (%)
T2 construct: expressed in transfected cells; host or cells: CHO-K1 (T-REx System, ThermoFisher Scientific)
T2 sequence (Q14524 1-2015 isoform Q14524-2): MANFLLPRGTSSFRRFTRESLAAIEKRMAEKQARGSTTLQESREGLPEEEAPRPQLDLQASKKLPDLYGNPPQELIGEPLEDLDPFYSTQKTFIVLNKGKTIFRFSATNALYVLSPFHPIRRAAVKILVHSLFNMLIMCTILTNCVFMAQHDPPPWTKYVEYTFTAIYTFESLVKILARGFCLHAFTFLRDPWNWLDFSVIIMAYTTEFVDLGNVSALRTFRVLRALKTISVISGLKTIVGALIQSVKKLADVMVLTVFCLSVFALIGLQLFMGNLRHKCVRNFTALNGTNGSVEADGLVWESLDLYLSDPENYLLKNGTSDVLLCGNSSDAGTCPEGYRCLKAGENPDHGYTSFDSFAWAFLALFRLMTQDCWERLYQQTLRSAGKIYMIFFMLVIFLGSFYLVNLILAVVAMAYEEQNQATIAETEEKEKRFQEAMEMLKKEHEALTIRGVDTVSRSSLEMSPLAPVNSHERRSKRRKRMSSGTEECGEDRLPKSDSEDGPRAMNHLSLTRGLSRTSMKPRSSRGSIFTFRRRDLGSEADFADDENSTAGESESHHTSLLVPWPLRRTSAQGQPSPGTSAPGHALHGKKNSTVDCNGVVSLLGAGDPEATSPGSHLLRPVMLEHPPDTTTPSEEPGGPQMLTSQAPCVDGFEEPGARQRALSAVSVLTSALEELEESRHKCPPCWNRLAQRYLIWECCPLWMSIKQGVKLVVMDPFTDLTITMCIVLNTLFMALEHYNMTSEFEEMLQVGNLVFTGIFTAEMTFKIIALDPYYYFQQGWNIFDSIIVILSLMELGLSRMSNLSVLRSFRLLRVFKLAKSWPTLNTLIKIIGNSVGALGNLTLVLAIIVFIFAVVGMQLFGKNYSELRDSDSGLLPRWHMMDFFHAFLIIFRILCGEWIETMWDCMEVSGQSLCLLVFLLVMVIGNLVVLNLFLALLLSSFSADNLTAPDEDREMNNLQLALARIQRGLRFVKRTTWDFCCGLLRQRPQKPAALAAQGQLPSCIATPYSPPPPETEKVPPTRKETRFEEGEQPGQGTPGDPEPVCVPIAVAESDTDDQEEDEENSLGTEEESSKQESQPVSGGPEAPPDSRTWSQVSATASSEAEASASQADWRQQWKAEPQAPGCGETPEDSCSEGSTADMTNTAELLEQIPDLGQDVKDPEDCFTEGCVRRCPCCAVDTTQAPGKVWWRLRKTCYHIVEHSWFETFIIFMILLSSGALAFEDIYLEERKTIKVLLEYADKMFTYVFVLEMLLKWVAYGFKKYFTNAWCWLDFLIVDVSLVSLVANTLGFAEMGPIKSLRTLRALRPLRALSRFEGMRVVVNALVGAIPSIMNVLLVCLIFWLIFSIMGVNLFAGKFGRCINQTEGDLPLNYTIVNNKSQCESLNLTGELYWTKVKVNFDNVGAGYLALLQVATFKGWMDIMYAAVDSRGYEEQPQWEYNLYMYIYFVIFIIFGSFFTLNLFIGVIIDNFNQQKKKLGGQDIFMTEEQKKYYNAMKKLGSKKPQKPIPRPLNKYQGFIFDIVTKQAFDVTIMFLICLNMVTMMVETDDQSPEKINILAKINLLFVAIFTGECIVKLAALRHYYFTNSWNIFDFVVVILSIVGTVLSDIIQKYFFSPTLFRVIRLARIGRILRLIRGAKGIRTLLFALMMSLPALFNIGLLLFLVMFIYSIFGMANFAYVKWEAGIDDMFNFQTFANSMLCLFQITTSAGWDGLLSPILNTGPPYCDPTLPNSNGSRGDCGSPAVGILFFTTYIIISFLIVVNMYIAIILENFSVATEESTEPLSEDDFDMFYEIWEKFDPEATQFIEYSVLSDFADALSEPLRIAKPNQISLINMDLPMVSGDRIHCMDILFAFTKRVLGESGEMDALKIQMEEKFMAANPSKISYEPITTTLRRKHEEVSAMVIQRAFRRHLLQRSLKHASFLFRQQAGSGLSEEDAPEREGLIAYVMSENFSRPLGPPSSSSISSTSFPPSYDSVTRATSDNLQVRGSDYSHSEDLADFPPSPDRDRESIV

Nav1.1 current amplification rate (%) [1] [%]	activation at 10 µM [1] [%]	Compound	Nav1.5 current amplification rate (%) [2] [%]	activation at 10 µM [2] [%]
198		CC1CCN(c2ccc(=O)n(CC(=O)Nc3cc(Cl)c4ocnc4c3)n2)CC1 [Example 94]	29	
221		CC1CCN(c2ccc(=O)n(CC(=O)Nc3ccc4nsnc4c3)n2)CC1 [Example 95]	18	
105		Cc1cc(NC(=O)Cn2nc(N3CCC(C)CC3)ccc2=O)cc2ncoc12 [Example 96]	7	
296		CCc1nc2cc(NC(=O)Cn3nc(N4CCC(C)CC4)ccc3=O)ccc2o1 [Example 97]	19	
15		CC1CCN(c2ccc(=O)n(CC(=O)Nc3ccc4c(c3)ncn4C)n2)CC1 [Example 98]	4	
103		COc1nc2cc(NC(=O)Cn3nc(N4CCC(C)CC4)ccc3=O)ccc2o1 [Example 99]	4	
	197	Cc1c(N2CCC(C)CC2)nn(CC(=O)Nc2ccc(C#N)nc2)c(=O)c1C [Example 100]		56
	58	O=C(Cn1nc(C2=CCC(F)(F)CC2)ccc1=O)Nc1ccc(C(F)(F)F)nc1 [Example 103]		13
	37	N#Cc1cncc(NC(=O)Cn2nc(C3=CCC(F)(F)CC3)ccc2=O)c1 [Example 107]		24
	57	N#Cc1ccc(NC(=O)Cn2nc(C3=CCC(F)(F)CC3)ccc2=O)cn1 [Example 109]		23
	46	O=C(Cn1nc(C2=CCC(F)(F)CC2)ccc1=O)Nc1cncc(C(F)(F)F)c1 [Example 112]		9
	83	O=C(Cn1nc(C2=CCC(F)(F)CC2)ccc1=O)Nc1ccnc(C(F)(F)F)c1 [Example 114]		12
	56	N#Cc1cc(NC(=O)Cn2nc(C3=CCC(F)(F)CC3)ccc2=O)ccn1 [Example 115]		12
	120	N#Cc1ccc(NC(=O)Cn2nc(N3CCCCCC3)ccc2=O)cn1 [Example 119]		25
	176	O=C(Cn1nc(N2CCCCCC2)ccc1=O)Nc1ccnc(C(F)(F)F)c1 [Example 120]		5
	184	N#Cc1ccc(NC(=O)Cn2nc(N3CCC4(CCCC4)C3)ccc2=O)cn1 [Example 121]		98
	173	O=C(Cn1nc(N2CCC3(CCCC3)C2)ccc1=O)Nc1ccc2ocnc2c1 [Example 122]		18
	246	O=C(Cn1nc(N2CCC3(CCCC3)C2)ccc1=O)Nc1cccc(-n2ccnc2)c1 [Example 123]		30
	205	N#Cc1ccc(NC(=O)Cn2nc(N3CCC4(CCC4)CC3)ccc2=O)cn1 [Example 124]		70
	220	O=C(Cn1nc(N2CCC3(CCC3)CC2)ccc1=O)Nc1cccc(-n2ccnc2)c1 [Example 125]		34
	167	O=C(Cn1nc(N2CCC3(CCC3)CC2)ccc1=O)Nc1ccc2ocnc2c1 [Example 126]		13
	229	O=C(Cn1nc(N2CCC3(CCC3)CC2)ccc1=O)Nc1ccc2scnc2c1 [Example 127]		58
	240	O=C(Cn1nc(N2CCC3(CCCC3)C2)ccc1=O)Nc1ccc2scnc2c1 [Example 128]		56
	314	CC1(C)CCC=C(c2ccc(=O)n(CC(=O)Nc3ccc4ocnc4c3)n2)C1 [Example 129]		25
	181	O=C(Cn1nc(N2CCCC3(CCC3)C2)ccc1=O)Nc1ccc2ocnc2c1 [Example 130]		3

Further lines, the compound ahead of its results:

Compound	Nav1.1 current amplification rate (%) [1] [%]	activation at 10 µM [1] [%]	Nav1.5 current amplification rate (%) [2] [%]	activation at 10 µM [2] [%]
CC1CCN(c2ccc(=O)n(CC(=O)Nc3ccc(C(F)(F)F)nc3)n2)CC1 [Example 59]	180		56	
CC1CCN(c2ccc(=O)n(CC(=O)Nc3cncc(C#N)c3)n2)CC1 [Example 60]	57		21	
CC1CCN(c2ccc(=O)n(CC(=O)Nc3cncc(C(F)(F)F)c3)n2)CC1 [Example 61]	77		8	
CC1CCN(c2ccc(=O)n(CC(=O)Nc3cncc(Cl)c3)n2)CC1 [Example 63]	49		3	
CC1CCN(c2ccc(=O)n(CC(=O)Nc3ccnc(N4CCOCC4)c3)n2)CC1 [Example 66]	49		31	
CC1CCN(c2ccc(=O)n(CC(=O)Nc3cccc(-n4ccnc4)c3)n2)CC1 [Example 67]	177		18	
Cc1nc2cc(NC(=O)Cn3nc(N4CCC(C)CC4)ccc3=O)ccc2o1 [Example 69]	137		0	
Cc1noc2ccc(NC(=O)Cn3nc(N4CCC(C)CC4)ccc3=O)cc12 [Example 70]	68		0	
CC1CCN(c2ccc(=O)n(CC(=O)Nc3ccn4nccc4c3)n2)CC1 [Example 71]	131		13	
CC1CCN(c2ccc(=O)n(CC(=O)Nc3ccn4ccnc4c3)n2)CC1 [Example 72]	119		3	
CC1CCN(c2ccc(=O)n(CC(=O)Nc3ccc4ncoc4c3)n2)CC1 [Example 73]	92		1	
COc1cc(NC(=O)Cn2nc(N3CCC(C)CC3)ccc2=O)ccn1 [Example 74]	70		−2	
CC1CCN(c2ccc(=O)n(CC(=O)Nc3cccc(-c4cnco4)c3)n2)CC1 [Example 77]	93		28	
CC1CCN(c2ccc(=O)n(CC(=O)Nc3cccc(-c4ncco4)c3)n2)CC1 [Example 78]	78		4	
CC1CCN(c2ccc(=O)n(CC(=O)Nc3ccc(C(=O)N4CCCC4)cc3)n2)CC1 [Example 79]	165		4	
CC1CCN(c2ccc(=O)n(CC(=O)Nc3cccc(-c4nccs4)c3)n2)CC1 [Example 80]	131		-3	
CC1CCN(c2ccc(=O)n(CC(=O)Nc3ccc4oc(=O)n(C)c4c3)n2)CC1 [Example 81]	69		21	
CC1CCN(c2ccc(=O)n(CC(=O)Nc3ccc4oc(=O)[nH]c4c3)n2)CC1 [Example 82]	121		5	
Cc1noc2cc(NC(=O)Cn3nc(N4CCC(C)CC4)ccc3=O)ccc12 [Example 84]	315		123	
CC1CCN(c2ccc(=O)n(CC(=O)Nc3ccc4c(c3)NC(=O)C4)n2)CC1 [Example 86]	73		3	
CC1CCN(c2ccc(=O)n(CC(=O)Nc3ccc4scnc4c3)n2)CC1 [Example 87]	255		22	
Cc1nc2cc(NC(=O)Cn3nc(N4CCC(C)CC4)ccc3=O)ccc2s1 [Example 88]	183		31	
CC1CCN(c2ccc(=O)n(CC(=O)N3CCc4cc(N5CCOCC5)ccc43)n2)CC1 [Example 89]	187		34	
CC1CCN(c2ccc(=O)n(CC(=O)Nc3ccc4oc(N(C)C)nc4c3)n2)CC1 [Example 91]	93		9	
